CS(=O)(=O)c1ccc([C@@H](O)[C@@H](CF)NC(=O)C(Cl)Cl)cc1
Settings	solubility (mole fraction)
in THF, 279.65 K	0.0293
in THF, 284.55 K	0.0317
in THF, 289.35 K	0.0342
in THF, 294.5 K	0.0374
in THF, 297.65 K	0.0398
in acetone, 279.25 K	0.0261
in acetone, 284.35 K	0.0294
in acetone, 289.1 K	0.0327
in acetone, 294.45 K	0.0368
in acetone, 297.75 K	0.0396
in ethanol, 278.55 K	0.00126
in ethanol, 283.45 K	0.00153
in ethanol, 288.8 K	0.00212
in ethanol, 293.7 K	0.00259
in ethanol, 298.45 K	0.00315
in methanol, 278.55 K	0.00408
in methanol, 283.5 K	0.00488
in methanol, 288.85 K	0.00598
in methanol, 293.8 K	0.00724
in methanol, 298.65 K	0.00878
in n-propanol, 278.35 K	0.0008
in n-propanol, 284.05 K	0.00106
in n-propanol, 289 K	0.00134
in n-propanol, 293.5 K	0.00165
in n-propanol, 298.65 K	0.00211
in water, 278.8 K	2.48e-05
in water, 283.85 K	2.86e-05
in water, 289.1 K	3.62e-05
in water, 293.95 K	4.64e-05
in water, 298.7 K	5.49e-05

From BigSolDB 2.1
